Results taken from ChEMBL document CHEMBL1201862, “PubChem BioAssay data set” (2004).
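Step 1: Grow cells in 96-well plates. Step 2: Expose to compound for 48 hours at 5 concentrations. Step 3: Interpolate endpoints linearly; if unreached, use highest concentration. GI50: concentration for 50% inhibition of growth.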 Activity calls are given as the source filed them. Rule as the data show it: active = GI50 up to about 1.1 µM and inactive = higher.

Key:
Experiment in all cases: DTP human tumour cell line panel, 48 h
A498 = test system: A498
A549 = test system: A549
BT-549 = test system: BT-549
CAKI-1 = test system: CAKI-1
CCRF-CEM = test system: CCRF-CEM
COLO 205 = test system: COLO 205
EKVX = test system: EKVX
HOP-92 = test system: HOP-92
HT-29 = test system: HT-29
LOX IMVI = test system: LOX IMVI
MCF7 = test system: MCF7
MDA-MB-231 = test system: MDA-MB-231
Malme-3M = test system: Malme-3M
OVCAR-4 = test system: OVCAR-4
SF-295 = test system: SF-295
SF-539 = test system: SF-539
SNB-19 = test system: SNB-19
SNB-75 = test system: SNB-75
SW-620 = test system: SW-620
UACC-62 = test system: UACC-62

| Structure (SMILES) | GI50 (A498) | GI50 (A549) | GI50 (BT-549) | GI50 (CAKI-1) | GI50 (CCRF-CEM) | GI50 (COLO 205) | GI50 (EKVX) | GI50 (HOP-92) | GI50 (HT-29) | GI50 (LOX IMVI) | GI50 (MCF7) | GI50 (MDA-MB-231) | GI50 (Malme-3M) | GI50 (OVCAR-4) | GI50 (SF-295) | GI50 (SF-539) | GI50 (SNB-19) | GI50 (SNB-75) | GI50 (SW-620) | GI50 (UACC-62) |
| --- | --- | --- | --- | --- | --- | --- | --- | --- | --- | --- | --- | --- | --- | --- | --- | --- | --- | --- | --- | --- |
| CCc1ccc(CCC(=O)O)nc1 | > 100 µM (inactive) | > 100 µM (inactive) | > 100 µM (inactive) | > 100 µM (inactive) | > 100 µM (inactive) | > 100 µM (inactive) | > 100 µM (inactive) | > 100 µM (inactive) | > 100 µM (inactive) | > 100 µM (inactive) | > 100 µM (inactive) | > 100 µM (inactive) | > 100 µM (inactive) | > 100 µM (inactive) | > 100 µM (inactive) | > 100 µM (inactive) | > 100 µM (inactive) | > 100 µM (inactive) | > 100 µM (inactive) | > 100 µM (inactive) |
| COc1ccccc1C(=O)N(C)c1ccc(Cl)c(C(=O)OC(C)C)c1 | 70.6 µM (inactive) | 49.9 µM (inactive) | 33 µM (inactive) | > 100 µM (inactive) | > 100 µM (inactive) | 42.9 µM (inactive) | 44.2 µM (inactive) | 48.2 µM (inactive) | > 100 µM (inactive) | 87.3 µM (inactive) | 62.4 µM (inactive) | > 100 µM (inactive) | > 100 µM (inactive) | 35.6 µM (inactive) | 30.6 µM (inactive) | > 100 µM (inactive) | > 100 µM (inactive) | 30.7 µM (inactive) | 46.6 µM (inactive) | 48.8 µM (inactive) |
| CN(C)CCOC1(CC2CCCCC2)CCC(C(C)(C)C)CC1 (stereo not given) | 6.47 µM (inactive) | 5.56 µM (inactive) | 6.19 µM (inactive) | 6.62 µM (inactive) | 2 µM (inactive) | 2.87 µM (inactive) | 8.07 µM (inactive) | 5.73 µM (inactive) | 2.43 µM (inactive) | 2.73 µM (inactive) | 2.98 µM (inactive) | 4.18 µM (inactive) | 2.83 µM (inactive) | 6.61 µM (inactive) | 4.32 µM (inactive) | 4.61 µM (inactive) | 8.43 µM (inactive) | 6.81 µM (inactive) | 4.12 µM (inactive) | 7.8 µM (inactive) |
| COc1ccc(NC(C)=O)cc1N1C(=O)/C(=C\c2cc(OC)c(OC)c(OC)c2)SC1c1ccccc1 (stereo not given) | 75 µM (inactive) | 57.8 µM (inactive) | 97.5 µM (inactive) | 19 µM (inactive) | 37 µM (inactive) | 39.6 µM (inactive) | 24.9 µM (inactive) | 29.5 µM (inactive) | 47.1 µM (inactive) | 39.3 µM (inactive) | 28.2 µM (inactive) | 19.4 µM (inactive) | 47 µM (inactive) | 39 µM (inactive) | 52 µM (inactive) | 64.6 µM (inactive) | 83.4 µM (inactive) | 26.9 µM (inactive) | 52.7 µM (inactive) | 67.9 µM (inactive) |
| COC(=O)c1ccc(O)c2nc3c(C=O)c(O)cc(O)c3nc12 [LOMOFUNGIN] | 1.22 µM (inactive) | 0.396 µM (active) | 0.614 µM (active) | 0.345 µM (active) | 0.259 µM (active) | 3.1 µM (inactive) | 1.36 µM (inactive) | 1.2 µM (inactive) | 0.458 µM (active) | 0.269 µM (active) | 0.369 µM (active) | 3.17 µM (inactive) | 2.07 µM (inactive) | 2.76 µM (inactive) | 0.0441 µM (active) | 0.0585 µM (active) | 1.9 µM (inactive) | 1.78 µM (inactive) | 0.641 µM (active) | 1.27 µM (inactive) |
| O=C(NC(Cc1c[nH]c2ccccc12)C(=O)O)/C(=C/c1ccccc1O)NC(=O)c1ccccc1 (stereo not given) | > 100 µM (inactive) | 60.5 µM (inactive) | 18.4 µM (inactive) | 18.8 µM (inactive) | > 100 µM (inactive) | > 100 µM (inactive) | 29.2 µM (inactive) | 14.5 µM (inactive) | > 100 µM (inactive) | 33 µM (inactive) | 3.08 µM (inactive) | 21 µM (inactive) | 22.4 µM (inactive) | 57.5 µM (inactive) | 19.8 µM (inactive) | 16.1 µM (inactive) | 22.7 µM (inactive) | 17.4 µM (inactive) | > 100 µM (inactive) | 24.2 µM (inactive) |
| O=[N+]([O-])C(=C(N1CCCCC1)N1CCCCC1)/C(Cl)=C(\Cl)[N+](=O)[O-] | 17.9 µM (inactive) | 19.5 µM (inactive) | 6.95 µM (inactive) | 1.19 µM (inactive) | 5.11 µM (inactive) | 5.01 µM (inactive) | 13 µM (inactive) | 2.74 µM (inactive) | 4.74 µM (inactive) | 2.32 µM (inactive) | 2.46 µM (inactive) | 7.59 µM (inactive) | 2.37 µM (inactive) | 8.2 µM (inactive) | 21.5 µM (inactive) | 9.1 µM (inactive) | 19.9 µM (inactive) | 17.5 µM (inactive) | 3.36 µM (inactive) | 15 µM (inactive) |
